Values quoted from earlier work as cited in patent US20230263806A1, “METHODS OF TREATING PROTEINOPATHIES” (Woolsey Pharmaceuticals, Inc., priority 2020, published 2023).
Structures can show the parent of a compound that is named as a salt.

What was measured:
[1] = target: p38 mitogen-activated protein kinase (Homo sapiens, UniProt Q16539)
[2] = 1-hydroxy (M3) metabolite, in vivo
triple transgenic Mice = settings: 10 or 12 months of age; administered in water at 30 mg/kg and 100 mg/kg
[3] = system: triple transgenic mouse model (APP Swedish, MAPT P301L, and PSEN1 M146V); settings: 10 mg/kg/day intraperitoneally (57 mg HED)

Sequence of p38 mitogen-activated protein kinase (Q16539 2-360 limits assumed): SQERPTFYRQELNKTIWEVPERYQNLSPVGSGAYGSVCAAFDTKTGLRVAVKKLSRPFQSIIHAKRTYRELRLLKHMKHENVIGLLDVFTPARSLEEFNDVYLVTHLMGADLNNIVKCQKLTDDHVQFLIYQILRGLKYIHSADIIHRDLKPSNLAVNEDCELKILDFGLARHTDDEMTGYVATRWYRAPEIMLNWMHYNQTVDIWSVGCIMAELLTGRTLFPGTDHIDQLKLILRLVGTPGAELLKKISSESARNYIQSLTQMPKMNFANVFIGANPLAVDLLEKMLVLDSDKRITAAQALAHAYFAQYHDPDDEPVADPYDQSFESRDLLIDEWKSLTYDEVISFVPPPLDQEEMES

## O=c1ncn2nc(Sc3ccc(F)cc3F)ccc2c1-c1c(Cl)cccc1Cl [Neflamapimod]
[1]; Phase 2
  primary endpoint of improving episodic memory: failed
  tau in the cerebrospinal fluid: reducing tau
[1]; humans
  Aβ deposition: no effect

## O=S(=O)(c1cccc2c(O)nccc12)N1CCCNCC1 [M3]
[2]
  half-life: about 8 hours

## O=S(=O)(c1cccc2cnccc12)N1CCCNCC1 [fasudil, Hexahydro-1-(5-isoquinolinesulfonyl)-1H-1,4-diazepine Monohydrochloride Hemihydrate]
Triple transgenic Mice
  spatial memory: did not observe improvements in spatial memory
[3]
  amyloid plaques in vivo: reduce 1 amyloid plaques
